Experimental findings from patent US20110152207A1, “USE OF VITAMIN D GLYCOSIDES AND SULFATES FOR TREATMENT OF DISEASE” (priority 2009, published 2011) are described below.

For test [1], the system named is Cyp24. Description: Cyp24 mRNA expression in duodenum of mice after a single oral dose. Type of test: in vivo. To be noted: for Cyp24 expression in the duodenum, induction over control mice: 24 pmol per os. How it is done: Mice were decapitated 6 hrs later following light anesthesia under inhaled halothane. […] Tissue samples were flushed with ice-cold phosphate-buffered saline and immediately homogenized in 1 ml of TRIzol® reagent (Invitrogen Corp., Carlsbad, Calif.). Samples were then kept frozen at −86° C. prior to processing for RNA. For processing RNA, each TRIzol® homogenate was thawed at room temperature and 500 μl placed in a clean microfuge tube, mixed thoroughly with 100 μl chloroform for 15 sec and then centrifuged at 12,000×g for 15 min at 4° C. The upper aqueous phase was removed and mixed with 0.93 volumes of 75% EtOH. The mixture was then applied to an RNeasy spin column (Qiagen Inc., Germantown, Md.) and processed as described by the manufacturer with the exception that an additional wash with 2M NaCl/2 mM EDTA (pH 4.0) was included (Das et al. J Vet Diagn Invest. 2009; 21:771-778). RNA was eluted in 50 μl of water and the concentration obtained by UV spectrometry. One microgram of RNA was then used as a template for production of cDNA in a 20-μl reaction volume using random hexamers and Superscript III as described by the manufacturer (Invitrogen, Carlsbad, Calif.). Afterwards, samples were diluted to 100 μl final volume with TE buffer and stored at −20° C. prior to PCR analysis. Quantitative real-time RT-PCR was performed using a Stratagene Mx3005p cycler (Stratagene, La Jolla, Calif.) and PerfeCTa® SYBR® Green FastMix®, ROX reagent (Quanta Biosciences, Gaithersburg, Md.). Amplification of target cDNAs was accomplished with the following primers: Aliquots (8.3 ng) of cDNA were amplified under the following conditions: 95° C. for 30 sec, followed by 45 cycles of 95° C. for 1 sec and 57° C. for 30 sec. […] Oligonucleotides were obtained from Integrated DNA Technologies (Coralville, Iowa).

Test [2] concerns DSS-induced inflammation of the lower colon. The test is described as follows: Dextran sodium sulfate (DSS) mouse model of IBD. It is filed as in vivo. To be noted: DSS mice; for Fecal Blood Score: scale 0-3. The source says:
In this example, β-gluc-1,25-D3 compounds, alone or in combination with 25-β-glucuronide-25-hydroxyvitamin D3 compounds (hereinafter β-gluc-25-D3) were incorporated into the diet of mice and compared to equimolar 1,25-D3 with respect to therapeutic effects on IBD and induction of calcemia. A standard mouse model of IBD comprising administering dextran sodium sulfate (DSS) to induce inflammation of the lower colon was used to study these effects. Vitamin D treatments were first initiated for 4 days. After 4 days, mice were fed DSS-water for 7 days, allowed one day to recover, and sacrificed. Colon length, plasma calcium, fecal blood score, and body weight were assayed. Colon length is a standard marker of intestinal inflammation in the literature, with shortened colon length being an indicator of inflammation. A 1-cm section of the mid-colon was removed, fixed in formalin, and stained with hematoxylin & eosin for microscopic histopathologic evaluation by a veterinary pathologist blinded to the treatments. Each tissue section received a score from 0 to 4 reflecting absence of lesion to severe, extensive lesion for each of three criteria: (1) the degree of erosion/ulceration of colon mucosa; (2) the degree of infiltration of the tissues by inflammatory cells; and (3) the degree of submucosal edema. The sum of the score of each of these criteria constitutes the histopathological score for the tissue with a zero score representing normal tissue based on all criteria, and the worst possible outcome being a score of 12.

Test [3] concerns LNCaP cells. The test is described as follows: LNCaP cell proliferation (CELLTITER BLUE). Type of test: cell-based, human. The following applies: six days, control = 100. How it is done:
LNCaP cells (ATCC # CRL-1740) are malignant prostate cancer cells originally obtained from a lymph node of a person whose prostatic cancer had metastasized to the lymph node. LNCaP cells were grown in tissue culture using RPMI-1640 media with 10% fetal bovine serum. Wells of two 48-well tissue culture plates were seeded with 5000 LNCaP cells/well. […] Half the media was replaced with fresh media with treatments on the third day of the treatment period. By day 6 of treatment, wells of control untreated cells were approximately 60% confluent. The live cell numbers in each well at the end of treatment were assessed using the “CELLTITER BLUE”-brand assay kit (Promega Corp., Madison, Wis.). The assay is based on the ability of living cells to convert a redox dye (resazurin) into a fluorescent end product (resorufin).

For test [4], the system named is 4T1 tumor cells. The test is described as follows: 4T1 mammary tumor growth in BALB/c mice. Type of test: in vivo. The following applies: 280 ng/day s.c. daily, eight days. How it is done: 4T1 tumor cells, originally isolated from a BALB/cfC3H mouse mammary gland, were obtained from American Tissue Culture Collection (Manassas, Va.). The tumor growth and metastatic spread of 4T1 cells in BALB/c mice very closely mimic human breast cancer. This syngeneic tumor graft is an animal model for stage 1V human breast cancer (Pulaski et al. Cancer Res. 1998, 58:1486-1493). The cells were grown in RPMI-1640 media supplemented with 10% fetal bovine serum. When cell growth reached about 70% confluency, the cells were lifted from the flasks with standard removing medium and rinsed with 0.25% trypsin, 0.53-mM EDTA solution (trypsin-EDTA solution). This solution was removed and an additional 1 to 2 ml of trypsin-EDTA solution was added. The flask was allowed to sit at 37.0° C. until the cells detached. Fresh culture medium was added, and the cells were aspirated for enumeration using a hemocytometer. RPMI-1640 and Matrigel (BD Biosciences, Bedford, Mass.) solutions were prepared and maintained at 4° C. to keep the Matrigel liquid. […] Sixteen days after implantation of the cells, tumors approximately 0.5-0.7 cm in diameter (as measured with calipers) formed under the skin of many of the mice. […]

Marks after values point to notes of the source that are not given here.

Consider `C=C1/C(=C\C=C2/CCC[C@]3(C)[C@@H]([C@H](C)CCCC(C)(C)O[C@@H]4O[C@H](C(=O)O)[C@@H](O)[C@H](O)[C@H]4O)CC[C@@H]23)C[C@@H](O)C[C@@H]1O` [β-gluc-1,25-D3, 25-β-glucuronide-1,25-dihydroxyvitamin D3], for which the “Cyp24 expression in the duodenum, induction over control mice” value was found to be 1300 fold in test [1] (3 hours) and 500 fold in test [1] (6 hours). Further, in test [1] (6, 12, 24, 48 pmol per os, 6 hrs), the “induction of Cyp24 in the duodenum versus analogous dose of 1,25-D3” value was “consistently less effective than the analogous dose of 1,25-D3”. Moreover, the “Histopathology score (0-12)” value was 6.66 ± 0.53^c in test [2] (14 ng/day), 6.33 ± 0.74^c in test [2] (70 ng/day) and 8.33 ± 0.64 in test [2] (350 ng/day). For the same compound, the “Colon Length” value in test [2] (14 ng/day in diet) amounted to 5.78 ± 0.09 cm; in test [2] (70 ng/day in diet), 5.41 ± 0.15 cm; in test [2] (350 ng/day in diet), 4.72 ± 0.15 cm. The “Final Body Weight” value in test [2] (14 ng/day in diet) turned out to be 21.91 ± 0.49 g; in test [2] (70 ng/day in diet), 21.00 ± 0.68 g; in test [2] (350 ng/day in diet), 19.62 ± 0.69 g. Moreover, the “Fecal Blood Score” value in test [2] (14 ng/day) is 0.55 ± 0.26; in test [2] (70 ng/day), 0.22 ± 0.08^c; in test [2] (350 ng/day) it was 0.88 ± 0.43. The “reducing inflammation” value in test [2] (alone at 70 ng/day) is “numerically better than 1,25-D3”. Further, the “Proliferation index (Mean ± SEM)” value in test [3] (20 nM) stood at 95.4 ± 2.4; in test [3] (100 nM), 73.1 ± 9.5. The “tumor weight mean±SEM” value in test [4] (BALB/c mice) was found to be 2.01 ± 0.36 g. Further, the “effect on the growth of 4T1 tumor cells” value in test [4] (P=0.034) is recorded as “significant anti-proliferative effect”.
